Results taken from patent publication US20260008856A1, “METHODS OF TREATING DISEASE USING ANTI-IL1RAP ANTIBODIES AND ANTIBODY DRUG CONJUGATES” (Bluefin Biomedicine, Inc., priority 2022, published 2026).

Key:
[1] = test system: IL-6 secretion in human whole blood cultures stimulated with HKCA; experiment: IL-6 production in human whole blood cultures stimulated with heat-killed Candida albicans; type: cell-based; conditions: 24 hours, 1 μg/ml alone, combination 1 μg/ml BFB759 + 0.5 μg/ml adalimumab
Text: Materials included Human peripheral blood drawn from 5 healthy donors. Materials also included Anti-human TNF alpha (Adalimumab Biosimilar), BioXCell cat #SIM0001, lot #8024221F1; Heat-killed Candida albicans (HKCA), InvivoGen cat #tlrl-hkca, lot #6292-44-02; RPMI 1640 with L-glutamine and HEPES, Corning cat #10-041-CM; and Human IL-6 DuoSet ELISA, R and D Systems cat #DY206-05. Blood was drawn into heparin tubes from healthy volunteers. Whole blood cultures comprised of whole blood diluted with plain RPMI 1640 medium were set up in sterile 5.0 ml polypropylene snap cap culture tubes. One of the following treatments were added for 1 hour prior to either being left unstimulated or receiving stimulation with 1.5×10^6 cells heat-killed Candida albicans: medium alone (cells alone), 1 μg/ml IgG1 isotype control antibody alone, 1 μg/ml BFB759 alone, 1 μg/ml adalimumab alone, or one of two combination treatments of 1 μg/ml IgG1 isotype control antibody+0.5 μg/ml adalimumab or 1 μg/ml BFB759+0.5 μg/ml adalimumab. The final volume of each culture was 1.0 ml. Cultures were incubated for 24 hours at 37° C./5% CO2. Supernatants harvested from each culture in duplicate were frozen at −80° C. until assayed in duplicate for IL-6 levels by ELISA.

[2] = test system: normal human dermal fibroblasts (NHDF); experiment: IL-6 and IL-8 production in NHDF stimulated with cytokine combo incl. TNF-α; type: cell-based; conditions: cytokine combo IL-1α/β, IL-36α/β/γ, antibodies 0-20 ug/ml, BFB759 0.5 ug/ml in combination
Experimental: (§1) Human NHDF cells were plated on 96-well, flat-bottom plates at 4,000 cells/well. […] For combination therapy, 0.5 ug/ml BFB759 was mixed with adalimumab or isotype control antibody at increasing concentrations (0-20 ug/ml, 5-fold dilution) and incubated with cells in duplicate for 45 minutes, prior to the addition of cytokine combo. The plates were then incubated overnight at 37° C., 5% CO2. 24 hours after treatment, supernatants were transferred and assayed for IL-6 and IL-8, as per manufacture's protocol (R&D Systems; Human IL-6 DuoSet ELISA, Human IL-8/CXCL8 DuoSet ELISA). The raw assay data were analyzed using GraphPad Prism 9 software to perform a non-linear regression.

[3] = test system: normal human dermal fibroblasts (NHDF); experiment: IL-6 and IL-8 production in NHDF stimulated with cytokine combo incl. IL-17A; type: cell-based; conditions: cytokine combo IL-1α/β, IL-36α/β/γ, antibodies 0-20 ug/ml, BFB759 0.5 ug/ml in combination
Experimental: as §1, with “Secukinumab” for “adalimumab”, “Isotype” for “isotype”

[4] = test system: TARC production in HDM stimulated human PBMCs; experiment: TARC production in HDM stimulated human PBMCs; type: cell-based
Text: Materials included Human peripheral blood mononuclear cells (PBMCs) that were isolated from healthy donor blood and either frozen in liquid nitrogen and thawed prior to analysis or used fresh. Materials also included HDM (house dust mite extract) that was from Greer lab and purchased through Fisher Scientific (NC9756554, Lot #390844). Additionally, Human IL-4 (204-IL-010) was purchased from R&D Systems; Human IL-13 (200-13) was purchased from Peprotech; JAK inhibitors (JAKi) Abrocitinib (HY-107429) and Upadacitinib (HY-19569) were purchased from MedChemExpress; Dexamethasone (D4902) was purchased from Sigma-Aldrich; Dupilumab (HY-P9926) was purchased from MedChemExpress; Tralokinumab was produced by Bluefin Biomedicine according to the published protein sequence; and TARC ELISA kits (DuoSet Cat #DY364, Quantikine Cat #SDN00) were purchased from R&D Systems.
Blood was drawn in heparin tubes from healthy volunteers. PBMCs were isolated by centrifugation of the blood over Ficoll-Paque Plus density gradients using LeucoSep tubes.
(§2) 0.2 million PBMCs in 100 ul medium (RPMI1640, 10% heat-inactivated FBS) were added to each well of 96 well cell culture plate. BFB759 at multiple concentrations in 50 ul medium was added to the wells. The cells were incubated in the incubator for 45 min. Then, 50 ul HDM solution (final concentration 10 ug/ml) was added to the wells. After 7 days incubation, the supernatant was transferred to a new 96 well plate, and used in TARC ELISA right away, or frozen in −80 C freezer for ELISA later. For the combination studies of BFB759 with other drugs, the single agent or combination of drugs were added to the PBMCs, incubated for 45 min, then HDM solution, or HDM and IL-4 or IL-13 solution were added to the wells. The assay was incubated for 7 days, and the supernatant was harvested for TARC ELISA.

[5] = test system: TARC expression in PBMCs stimulated with HDM and IL-4; experiment: TARC in PBMCs treated by HDM and hIL-4; type: cell-based, human; conditions: HDM 10 ug/ml, IL-4 750 ug/ml; three antibody concentrations
Experimental: as §2
Dupilumab is approved for treatment of AD (Atopic Dermatitis). It inhibits IL-4/13 signaling by blocking their binding to IL-4Ra. […] (FIG. 15)
In the data shown in FIG. 15, HDM was used at 10 ug/ml, IL-4 was used at […], antibodies were at three different concentrations as shown in the graph. Data shown are mean±s.d.

adalimumab [reference compound]
inhibition of IL-6 secretion [1]: inhibit IL-6 secretion | IL-6 production [2]: limited inhibition | IL-8 production [2]: limited inhibition

Secukinumab: anti-IL-17A antibody [reference compound]
IL-6 production [3]: limited inhibition | IL-8 production [3]: limited inhibition

CCCS(=O)(=O)N[C@H]1C[C@@H](N(C)c2ncnc3[nH]ccc23)C1 [Abrocitinib]
inhibition of TARC in HDM stimulated cells ([4]; HDM 10 ug/ml, JAKi and dexamethasone 0.1 nM, 10 nM, 1 uM, BFB759 1 ug/ml in combination): dose dependent inhibition

Dupilumab: approved for Atopic Dermatitis; inhibits IL-4/13 signaling by blocking their binding to IL-4Ra
inhibition of TARC expression in the HDM and IL-4 model [5]: partially inhibits | inhibition of TARC level ([4]; HDM stimulated PBMCs, same assay): does not inhibit TARC level significantly | inhibition of HDM induced TARC level, FIG. 13 ([4]; antibodies 30 ug/ml, HDM 10 ug/ml): does not or minimally inhibits
